Where no end group is shown, it is not given here. [ ]: non-standard residue; d: D form. Dopa = N[C@@H](Cc1ccc(O)c(O)c1)C(=O)O; Hyp = O=C(O)[C@@H]1C[C@@H](O)CN1
Legend:
[1] = system: C57BL/6 mice; assay: Air pouch model (carrageenan): exudate volume, pouch wall weight, exudate cell count; format: in vivo; set-up: Neutrophil (total cell count and classification) / Monocyte (total cell count and classification): unit not given here; conditions: for Pouch Wall Weight / Exudate volume: mean ± SD, 24 hours after carrageenan; for Exudate volume: injected into air pouch, per mouse: Positive 200 μg, M1-B/M1-A/Test 1.5 mg, M2-B/M2-A 4.5 mg, timing 1 hour (Positive, -B, Test) or 6 hours (-A), Table 1
Procedure: Healthy adult male C57BL/6 mice weighing between 20 and 30 g were supplied by Nanjing Biomedical Research Institute (NBRI) of Nanjing University, China. Prior to any experiments being conducted, mice were housed under standardized conditions (at a constant temperature or 22±2° C., with alternating 12 hour periods of light and darkness), and were fed on a standard mouse diet with water, for about a week.
General anesthesia was induced using intraperitoneal 3% chloral hydrate (Sinopharm Chemical Reagent Co., Ltd., Shanghai, China); 1 mL/10 g of body weight). The hair of the entire dorsum was shaved and depilated 1 day before sterile air injection.
(§1) Air pouches were produced by subcutaneous injection of sterile air (5 mL) into the intrascapular area of the mice. After three days, another injection of air (3 mL) was performed to maintain the pouches. In order to induce acute inflammation, three days after this final injection, animals received an injection of sterile carrageenan solution (CP Kelco, Taixing, Jiangsu Province, China; 1%, 0.5 mL; produced by adding 0.1 g of carrageenan powder into a beaker containing 10 mL of 0.9% saline solution and stirring). Mice were pre-treated with test samples or vehicle 1 hour before and 23 hours after the carrageenan injection into the subcutaneous air pouch. Animals were sacrificed 24 hours after the carrageenan injection.
The cavity was washed with 4 mL of sterile phosphate buffer solution (pH 7.4; prepared by dissolving 4 g of NaCl, 0.1 g of KCl, 1.749 g of Na2HPO4.12H2O and 0.1 g of KH2PO4 in ultrapure water, adjusting the pH to 7.4 with HCl and diluting with water to a total volume of 500 mL).
(§2) Exudates were collected and volumes were quantified. The total number of cells was determined with a haematocytometer (ADVIA 2120 Hematology System, Siemens Healthineers). The exudates were centrifuged at 3000 rpm for 10 minutes at 4° C., and the supernatants were collected and stored at −20° C. for ELISA analysis using standard ELISA test kits (Biolegend™ from Dakewe Biotech Co., Beijing, China or Abcam™, Abcam (Shanghai) Trading Co. Ltd, China) and an ELISA reader (SH-1000 Hitachi, Japan) for tissue necrosis factor alpha (TNF-α), interleukin 1 beta (IL-1β), interleukin 6 (IL-6), interleukin 10 (IL-10), prostaglandin E2 (PGE2), interferon gamma (IFN-γ) and 5-hydroxytryptamine (5-HT; serotonin).
After conducting some preliminary experiments to validate the model, an experiment was conducted in which mice were treated by administering test samples or vehicle in accordance with Table 1 below.
In Table 1, the M1-B, M2-B, M1-A and M2-A samples are MAP (Mefp-1) solutions of specified concentrations administered at different times relative to the carrageenan injection, as specified in the table. The solutions were prepared as follows. Blue mussels were harvested in the coastal area of Shandong Province, China. Mussel feet were collected, cut into small pieces and homogenized in an extraction buffer comprising 5% acetic acid in 4 mol/L of aqueous urea. The crude extracts were collected after centrifuging and then purified by liquid chromatography. The purified protein (semi-finished product; concentration 8 mg/mL; purity as measured by HPLC 91.72%; pH 4.2) was stored at 0° C. The solutions that were employed below were prepared by adding saline solution to this semi-finished product to obtain the concentrations described in Table 1.
Also in Table 1, “Test” is MAP Peptide, which was obtained from Innovagen AB, Sweden. The peptide was synthesized according to the relevant Mefp-1 amino acid sequence. The peptide powder was stored at −20° C. and dissolved in saline water at a concentration of 3.0 mg/mL, pH 5.5.
Dexamethasone (MedChemExpress, Shanghai, China) was obtained in powder form and dissolved in ultrapure water to obtain a solution with a concentration as described in Table 1.
All the substances listed in Table 1 were administrated topically by directly injecting into the air pouches.

[2] = system: TNF-α; assay: Air pouch model: ELISA of exudate for TNF-α; format: in vivo, mice; conditions: ±SD, doses and timing per Table 1
Procedure: as §1, with “Animals were sacrificed 24 hours after the carrageenan injection.” left out
as §2, with “serotonin). […]” for “serotonin).”

[3] = system: IL-6; assay: Air pouch model: ELISA of exudate for IL-6; format: in vivo, mice; conditions: ±SD, doses and timing per Table 1
Procedure: as §1
Exudates were collected and volumes were quantified. […] The exudates were centrifuged at 3000 rpm for 10 minutes at 4° C., and the supernatants were collected and stored at −20° C. for ELISA analysis using standard ELISA test kits (Biolegend™ from Dakewe Biotech Co., Beijing, China or Abcam™, Abcam (Shanghai) Trading Co. Ltd, China) and an ELISA reader (SH-1000 Hitachi, Japan) for tissue necrosis factor alpha (TNF-α), interleukin 1 beta (IL-1β), interleukin 6 (IL-6), interleukin 10 (IL-10), prostaglandin E2 (PGE2), interferon gamma (IFN-γ) and 5-hydroxytryptamine (5-HT; serotonin).

[4] = system: C57BL/6 mice; assay: Air pouch model: histology scoring of pouch wall (HE stained slices); format: in vivo; set-up: key to Inflammation score / Edema Score / Motility score: 1 = mild, 2 = moderate, 3 = severe; conditions: for Motility score: density of neutrophils, 1 to 3 points; for Motility score / Edema Score / Inflammation score: doses and timing per Table 1; for chronic inflammatory cell infiltration of the pouch wall / edema of the pouch wall / neutrophil infiltration of the pouch wall: histological description in words; for Edema Score / Inflammation score: pouch wall histology; for Edema Score: 1 mild to 3 most severe; for Inflammation score: 1 mild to 3 severe; for Sum: sum of inflammation, edema and motility scores
Procedure: as §1
Skin biopsies were taken from the air pouches. A part of the biopsy was fixed in formalin (produced by adding ultra pure water to 50 mL of a 40% formaldehyde solution (Nanchang Rain Dew Experimental Equipment Co., Ltd., Nanchang, […] Provence, China) up to a total volume of 500 mL) and analyzed by histological embedding in paraffin wax, sectioning and staining.
The histological specimens were analysed and an inflammation score, a motility score, an edema score and […] were estimated as follows.
The HE stained slices were observed under an optical microscope and were scored (1, 2 or 3 points) according to the perceived inflammation level (in cases showing only a small amount of inflammatory cells scattered in the area—1 point (mild); in cases where many inflammatory cells were observed—2 points (moderate); and, in cases with diffuse infiltration—3 points (severe)). A similar scoring system was employed for edema levels (3 points for most severe and 1 point for mild) after overall observation. Motility scores represented the density of neutrophils, which employed the same methodology as that employed for inflammatory cells.

[5] = system: IFN-γ; assay: Air pouch model: ELISA of exudate for IFN-γ; format: in vivo, mice; conditions: ±SD, doses and timing per Table 1
Procedure: as §1, with “Animals were sacrificed 24 hours after the carrageenan injection.” left out
as §2, with “serotonin). […]” for “serotonin).”

[6] = system: TNF-α, IL-6, and IL-1β; assay: Air Pouch Model II: ELISA of exudate; format: in vivo, mice; conditions: 300 μg/mouse into air pouch; FIGS. 2A-2C
Procedure: (§3) Essentially the same procedure as that described in Example 1 above was followed, to treat mice by administering test samples or vehicle in accordance with Table 6 below.
(§4) In this example, MAP Peptide powder was dissolved in saline water at a concentration of 0.6 mg/mL at pH 5.5. Then 0.5 mL of the solution was injected into each air pouch in the group.
In this example, ELISA analysis was carried out for TNF-α, IL-6, and IL-1β, which are shown graphically in FIGS. 2A-2C, respectively.

[7] = system: polymorphous light eruption; assay: MAP Peptide liquid spray in subjects with polymorphous light eruption; format: in vivo; conditions: 1.5 mg/mL spray in WFI
Procedure: MAP Peptide was dissolved in water for injection (WFI; prepared from TC-RO-0.25T/h-2 water treatment system, Yangzhou […] Treatment Devices & Engineering Co., Ltd., Yangzhou, China). The concentration of the solution was 1.5 mg/mL. The solution was loaded into a spray device. Enrolled subjects in the study were diagnosed with polymorphous light eruption (an inflammatory condition characterized by a rash caused by sun exposure in people who have developed sensitivity to sunlight). Prior to treatment, the patients presented symptoms including skin redness, papules, itching and swelling. Subjects were required to use the liquid spray in the morning and the evening after facial cleansing.

[8] = system: C57BL/6 mice; assay: Acute wound model: wound contraction ratio; format: in vivo
Procedure: 6-8 weeks old male C57BL/6 mice were supplied by Changzhou Ovens Experimental Animal Co. Ltd (Changzhou, Jiangsu Province, China). Prior to any experiments being conducted, mice were housed under standardized conditions (at a constant temperature of 22±2° C., with alternating 12 hour periods of light and darkness), and were fed on a standard mouse diet with water, for about a week.
General anesthesia was induced using intraperitoneal 3% chloral hydrate (1 mL/10 g of body weight). The hair on the back was shaved by a baby hair shaver and depilated with cream. The skin area was wiped and sterilized with 75% alcohol twice.
An EMS skin biopsy punch (Electron Microscopy Sciences, P.O. Box 550, 1560 Industry Road, Hatfield, PA, USA) with 8 mm diameter was used to make a round wounds on each side of the midline of the back. The full thickness of skin was removed and the depth of the wound reached the fascia. Wounds were left open without a suture.
Different drugs were administrated topically at 50 μL/wound, once daily from Day 0 to Day 12, as show in Table 8 below. […] The model group was given same amount of normal saline. There were 12 mice in each group.
For this experiment, MAP Peptide was obtained from GL Biochem (Shanghai) Ltd. The peptide powder was stored at −20° C. and dissolved in saline at a concentration of 33 μg/m L.
20 μL of respective solutions were applied onto each wound surface in the relevant groups.
Wounds were dressed with gauze and transparent dresser after drug administration. Photographs were taken for each wound every other day from Day 0. Photos were scanned into a computer, and wound areas calculated using ImageJ image analysis software (National Institutes of Health, […]).
Photographs were taken for each wound every other day from Day 0. Wound healing was calculated by the wound contraction ratio (WCR) WCR=(A0−At)/A0×100% where A0 and At refer to the initial area at Day 0 and the wound area at the date of measurement (time t), respectively.

[9] = system: C57BL/6 mice; assay: Air Pouch Model II: histology scoring; format: in vivo
Procedure: as §3, §4

[10] = air pouch exudate, doses and timing per Table 1
[11] = ±SD, topical once daily, MAP 5 μg/wound, MAP Peptide 6.57 μg/wound
[12] = 300 μg/mouse into air pouch, 1 hour before carrageenan

Compound | Leukocyte (total cell count and classification) [1, 10] [mL⁻¹] | Pouch Wall Weight ([1]; doses and timing per Table 1) [g] | Exudate volume [1] [mL] | TNF-α [2] | IL-6 [3] | Motility score [4] | chronic inflammatory cell infiltration of the pouch wall [4] | edema of the pouch wall [4] | neutrophil infiltration of the pouch wall [4] | Edema Score [4] | Inflammation score [4] | Sum [4] | IFN-γ [5] | other results
C[C@@H]1C[C@H]2[C@@H]3CCC4=CC(=O)C=C[C@]4(C)[C@@]3(F)[C@@H](O)C[C@]2(C)[C@@]1(O)C(=O)CO [Positive, Dexamethasone, reference compound] | 3.49e+06 | 0.63 ± 0.09 | 3.3 ± 0.15 | 65.08 ± 7.70 | 428.05 ± 267.27 | 0.67 | moderate chronic inflammatory cell infiltration | moderate interstitial edema | a small amount of neutrophil infiltration | 1.67 | 1.83 | 4.17 | 388.83 ± 130.02 | 
AKPSY[Hyp][Hyp]T[Dopa]K [MAP Peptide] | 4.74e+06 | 0.60 ± 0.17 | 3.43 ± 0.06 | 58.49 ± 28.72 | 132.63 ± 137.34 | 1.00 | mild to moderate chronic inflammatory cell infiltration | interstitial edema | a small amount of neutrophil infiltration | 1.00 | 1.67 | 3.67 | 377.31 ± 198.68 | Monocyte (total cell count and classification) [1, 10]: 81.54 ×10^6; Neutrophil (total cell count and classification) [1, 10]: 296.32 ×10^6; anti-inflammatory effects (ELISA for TNF-α, IL-6, IL-1β) [6]: very strong anti-inflammatory effects; erythema alleviation efficiency compared to MAP spray of same concentration [7]: much more rapid erythema alleviation efficiency; malaise [7]: inhibited malaise; subjects whose erythema completely disappeared in a few hours [7]: 50%; tested subjects with itch completely relieved within 1 minute [7]: 50%; time to alleviation of most of the observed erythema [7]: ≤ 1 min; time to relief of itching ([7]; morning and evening): ≤ 1 min; improvement rate, (WCR MAP Peptide Group−WCR MAP Group)/WCR MAP Group×100% ([8]; Day 6, versus MAP group): 52.96%; effect on wound healing compared with MAP ([8]; acute wound model, Table 9): stronger effect on wound healing than MAP; wound contraction ratio (WCR), Day 2 [8, 11]: 6.99 ± 2.02%; wound contraction ratio (WCR), Day 4 [8, 11]: 18.65 ± 1.87%; wound contraction ratio (WCR), Day 6 [8, 11]: 42.91 ± 0.57%; wound contraction ratio (WCR), Day 8 [8, 11]: 48.73 ± 1.65%; wound contraction ratio (WCR), Day 0 ([8]; ±SD, topical once daily, MAP 5 μg/wound, MAP Peptide 6.57 μg/wound, 8 mm full thickness wound): 0.00 ± 0%; Inflammation score ([9]; 300 μg/mouse (0.6 mg/mL, 0.5 mL) into air pouch, 1 hour before carrageenan): 1.6; Edema Score [9, 12]: 1.8; Fibroplastic proliferation score [9, 12]: 0.2; Sum ([9]; 300 μg/mouse, printed sums equal inflammation + edema scores only): 3.4
